Assays:
[1] = tested on: rhesus macaques (Macaca mulatta); test: Live gaze interaction task (social attention to a conspecific); assay type: in vivo; settings: for attention to the conspecific (looking at the eyes) following mutual eye contact, compared with SAL: 0.5-3 s after mutual eye contact, permutation test, OTNAL P<0.01, OT, NAL both P>0.05
Protocol: Nine adult rhesus macaques (Macaca mulatta) were selected for study. The animals (six males and three females) were all housed together in a colony in either pairs or triads. Each animal was kept on a 12-h light/dark cycle and had access to food 24 h each day with controlled access to water during testing. Before testing began, each monkey received a surgically implanted head post (Crist Instruments, Gray Matter Research) for restraining its head while tracking eye positions. At the time of surgery, anesthesia was induced with ketamine hydrochloride (10 mg/kg i.m.) and maintained with isoflurane (1.0-3.0%, to effect). Aseptic procedures were used, and heart rate, respiration rate, blood pressure, expired CO2, and body temperature were monitored throughout the procedure. Monkeys were allowed an additional 30-40 d of recovery after the implant surgery.
All of the tested subjects received pharmacological manipulations through a pediatric nebulizer (PARI Baby Nebulizer; PARI Respiratory Equipment) with a cone-shaped facemask. The facemask, designed for canine anesthesia, was fitted entirely over the muzzle area, and the subject breathed freely through the nose for the duration of the dose administration. Before experimental sessions, monkeys were first incrementally habituated to the facemask and then to the nebulizer until they were completely relaxed during the procedure, which typically took about 3-5 d. […]
Gaze calibration procedures for studying dyadic gaze interactions reported by Dal Monte, et al., 2016, J. Neurophysiol. […] For analysis purposes, the location was determined where the animal was looking on a theoretical screen located further from the actual screen on which the animal was calibrated. With trigonometric corrections, the ROIs were identified and matched based on individual measurements of each monkey's face to the dimension of fixations as measured from the calibration screen. […]
Two animals sat in front of each other with no task constraints while the eye positions of both animals were recorded simultaneously and continuously (FIG. 1A). […]

[2] = tested on: rhesus macaques (Macaca mulatta); test: NAL dose-response curve, free-viewing task (fixation frequency to face images); assay type: in vivo; settings: intranasal NAL 0.5, 1, 2 mg via nebulizer, P<0.001 for 1 mg over 2 mg and over 0.5 mg
Excerpt: All of the tested subjects received pharmacological manipulations through a pediatric nebulizer (PARI Baby Nebulizer; PARI Respiratory Equipment) with a cone-shaped facemask. The facemask, designed for canine anesthesia, was fitted entirely over the muzzle area, and the subject breathed freely through the nose for the duration of the dose administration. Before experimental sessions, monkeys were first incrementally habituated to the facemask and then to the nebulizer until they were completely relaxed during the procedure, which typically took about 3-5 d. This habituation procedure was performed with saline (SAL). During both the habituation phase and the testing phase, the animals' heads were restrained to minimize movement and enhance administration reliability. Each of the different pharmacology manipulations tested was diluted to a volume of 2 mL using sterile SAL and was administered over the course of 8-10 min. In addition, experimental sessions were conducted at the same time of day to control for diurnal fluctuations. […]
On the day of the experiment, monkeys were transported in a primate chair from the colony room to the experimental room. […] During the 15-s period, monkeys were free to explore, or not explore, each face presented while an infrared eye-tracking camera continuously recorded their eye positions (Eyelink; SR Research). […]

social partners = settings: background statement; cited from earlier work

Structure (SMILES)	attention to the conspecific (looking at the eyes) following mutual eye contact, compared with SAL [1]	frequency of fixations to the eyes, normalized by SAL [2]	frequency of fixations to faces, normalized by SAL ([2]; inverted U-shaped curve)	solicitation for social contact, such as grooming and proximity (social partners)	frequency of fixations to the eyes of a conspecific, normalized by SAL ([1]; OT 24 IU, NAL 1 mg, intranasal, P=0.004 OTNAL over SAL, P=0.069 over NAL, P=0.022 over OT, OT over SAL P=0.059 (marginal))	physical contact between social partners (social partners)
C=CCN1CC[C@]23c4c5ccc(O)c4O[C@H]2C(=O)CC[C@@]3(O)[C@H]1C5 [NAL, naloxone]	neither OT nor NAL administered alone had a significant effect	maximal effect again clearly occurred following the 1-mg dose	maximal effects clearly occurred following the 1-mg dose	increases solicitation for social contact		
CC[C@H](C)[C@@H]1NC(=O)[C@H](Cc2ccc(O)cc2)NC(=O)[C@@H](N)CSSC[C@@H](C(=O)N2CCC[C@H]2C(=O)N[C@@H](CC(C)C)C(=O)NCC(N)=O)NC(=O)[C@H](CC(N)=O)NC(=O)[C@H](CCC(N)=O)NC1=O [OT, 1-({(4R,7S,10S,13S,16S,19R)-19-amino-7-(2-amino-2-oxoethyl)-10-(3-amino-3-oxopropyl)-16-(4-hydroxybenzyl)-13-[(1S)-1-methylpropyl]-6,9,12,15,18-pentaoxo-1,2-dithia-5,8,11,14,17-pentaazacycloicosan-4-yl}carbonyl)-L-prolyl-L-leucylglycinamide]	neither OT nor NAL administered alone had a significant effect				overall increased fixations to the eyes compared with SAL	
CN1CC[C@]23c4c5ccc(O)c4O[C@H]2[C@@H](O)C=C[C@H]3[C@H]1C5 [morphine]						decrease physical contact between social partners

— patent publication US11160843B2, “Oxytocin and opioid antagonists for treatment of social dysfunction disorder” (YALE UNIVERSITY, priority 2018, dated 2021)
